One test deals with wild type yeast strain. Kind of test: SDS hypersensitivity assay. Format: cell-based. The settings on record: SDS in the growth media. From the text: Published data on a mcd4 mutant strain have shown that it has a number of characteristic phenotypes including increased sensitivity to SDS, an osmotic destabilizing detergent. The presence of as little as 0.004% SDS in the growth media leads to increased sensitivity of a wild type yeast strain to GPI-anchor inhibitors and thereby allows for the rapid screening of analogs. Again, this is a potentially information-rich assay but is subject to the same technical limitations discussed above for the OER assay.

In another test the test system is UPR pathway. Briefly: UPRE::lacZ reporter induction screen (primary assay). Type of test: cell-based, Saccharomyces cerevisiae. As to conditions: yeast cells containing 3X UPRE-CYClMINlacz, S. cerevisiae Δmdr mutant. From the text: Several UPRE::lacz reporter plasmids were constructed and used to transform a S. cerevisiae Δ mdr mutant and the transformants assessed for their ability to selectively respond to tunicamycin. The reporter sequence 3X UPRE-CYClMINlacz (FIG. 2) provided a selective, sensitive, and robust screening response to tunicamycin treatment and was selected for use in the Very High Throughput Screen (vHTS; Example 2). […] The activity of an associated β-galactosidase reporter gene thus served as an indirect signal of UPR-pathway stimulation.
The yeast strains were diploid Δmdr mutants of Saccharomyces cerevisiae: MMB 1663 (3XUPRE CYClMIN::lacz). Yeast glycerol stocks were prepared by culturing MMB 1663 (3XUPRE CYClMIN::lacZ) overnight to an OD 600 nm of 0.500. The culture was concentrated by centrifugation at 1000×g for 10 minutes and the pellet resuspended in fresh medium to an OD 600 nm of 1.00. An equal volume of HR Medium with 50% glycerol was added, producing a suspension of cells with an OD 600 nm of 0.500 and a final concentration of 25% glycerol. […]
4. […] (Packard TopSeal-A Plate Tape is not required for either plate reader when volumes are ≦50 μl for 384-well or ≦200 μl for 96-well plates).
5. After 90 minutes, β-galactosidase activity was read, using a 90 to 240 minute window. […]

In another test the test system is GPI anchor biosynthesis. Briefly: in-vitro GPI anchor biosynthesis assay. Type of test: biochemical. The settings on record: UDP-[3H]-GlcNAc, ATP, Coenzyme A, GDP-mannose; TLC. From the text: Crude lysate from hypotonic lysing of spheroplasts as well as microsomal preparations can be used as an enzyme source for a coupled in vitro assay. Addition of UDP-[^3H]-GlcNAc, ATP, Coenzyme A and GDP-mannose provides the necessary substrates to synthesize a complete precursor from endogenous PI and fatty acid.

In a further test the target is T1, Mcd4p (Saccharomyces cerevisiae, UniProt P36051).
T1 construct: overexpressed by cloning the gene under the control of its endogenous promoter in 2 micron (multi-copy) vectors; expressed in transfected cells; host or cells: yeast (S. cerevisiae) cells carrying MCD4 on a 2 micron multi-copy vector; also the mcd4-174 mutant strain for inositol labelling
T1 sequence (P36051 1-919): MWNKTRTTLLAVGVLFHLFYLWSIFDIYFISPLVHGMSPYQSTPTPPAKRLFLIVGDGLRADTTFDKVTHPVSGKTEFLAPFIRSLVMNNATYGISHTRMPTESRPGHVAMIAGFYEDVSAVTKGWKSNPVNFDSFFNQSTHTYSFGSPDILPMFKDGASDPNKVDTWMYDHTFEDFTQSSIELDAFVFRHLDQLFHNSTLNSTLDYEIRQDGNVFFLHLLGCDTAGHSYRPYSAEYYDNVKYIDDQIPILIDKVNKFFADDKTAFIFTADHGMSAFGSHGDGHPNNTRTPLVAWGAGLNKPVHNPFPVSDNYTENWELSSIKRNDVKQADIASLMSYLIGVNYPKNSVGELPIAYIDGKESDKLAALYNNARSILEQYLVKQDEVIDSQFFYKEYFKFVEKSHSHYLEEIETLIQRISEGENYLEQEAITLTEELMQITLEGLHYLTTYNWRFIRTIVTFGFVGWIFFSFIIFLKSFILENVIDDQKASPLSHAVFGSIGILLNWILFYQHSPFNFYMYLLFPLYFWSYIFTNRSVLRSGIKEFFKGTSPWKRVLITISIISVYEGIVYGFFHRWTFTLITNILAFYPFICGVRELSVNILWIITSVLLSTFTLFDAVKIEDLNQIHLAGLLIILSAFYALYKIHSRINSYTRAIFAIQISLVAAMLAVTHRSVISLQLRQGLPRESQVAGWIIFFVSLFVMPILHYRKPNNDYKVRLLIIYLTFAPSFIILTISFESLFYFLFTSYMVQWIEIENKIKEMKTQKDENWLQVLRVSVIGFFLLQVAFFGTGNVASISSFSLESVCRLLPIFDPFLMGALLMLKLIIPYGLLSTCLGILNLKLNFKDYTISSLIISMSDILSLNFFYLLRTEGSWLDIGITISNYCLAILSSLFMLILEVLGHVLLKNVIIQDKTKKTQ
Kind of test: MCD4 overexpression and inositol-labeling experiments in mcd4-174. Format: cell-based. The settings on record: MCD4 overexpression; mcd4-174 mutant strain. From the text: An overexpression resistance (OER) assay was employed to determine the cellular target of compounds isolated via the primary assay. Each of the known genes in the GPI pathway were overexpressed by cloning the gene under the control of its endogenous promoter in 2 micron (multi-copy) vectors. This is a rapid and very powerful assay, but has certain limitations. For example, with a number of hits, precipitation of the compound can be observed when spotted onto plates. […] In such cases, the ability to detect increased resistance in the shoulder region is limited by the small zone size. […] Therefore, the OER assay, while very powerful and rapid, may be limiting when working with compounds that are weakly AF.
Studies on a natural compound, CJ-19089 (also known as YW3548, a terpenoid lactone) have documented that this compound targets the MCD4 catalyzed step in the GPI-anchor biosynthesis pathway. […] This inhibitor has proven to be a very valuable tool for examining the pathway and establishing standards for chromatographic analysis. […] CJ-19089 was used as a positive control in each assay and was used in comparison to untreated samples for assay development.

Test [1] concerns MCD4 catalyzed step in the GPI-anchor biosynthesis pathway. The settings on record: cited from earlier work.

This is an account of results in patent US20020072051A1, “Screen for identifying inhibitors of GPI anchoring” (priority 2000, published 2002).

In the case of `OC(Cn1cncn1)(Cn1cncn1)c1ccc(F)cc1F` [fluconazole], in the test on wild type yeast strain, the “result on SDS plates” value is listed as “unambiguous positive result”.

Regarding tunicamycin, the “lacZ reporter gene transcription (UPR-pathway stimulation)” value with UPR pathway is given as “over transcribed”.

Consider `C=C1[C@@H]2C[C@@H]3[C@H](C(C)C)[C@@H](OC(=O)CC(C)(O)CC(C)CC)C[C@@]3(C)C[C@H]2/C(C)=C\C[C@@H]2[C@@H](C)OC(=O)[C@H](O)[C@]12O` (some centres unmarked) [CJ-19089], for which, in the test on GPI anchor biosynthesis, the “accumulation of CJ-lipid” value is “the CJ-lipid can be visualized”. Moreover, at Mcd4p, the cellular target result is given as “the target of this compound is Mcd4p”. Besides, in test [1], the “incorporation of [3H]myo-inositol into proteins” value is “prevents the incorporation of [^3H]myo-inositol into proteins”, the “step of GPI anchor biosynthesis blocked” value was “specifically blocks the addition of the third mannose to the intermediate structure Man2-GlcN-acylPI”, the toxicity entry is on record as “toxic” and the “transport of GPI-anchored proteins to the Golgi apparatus” value was “prevents transport of GPI-anchored proteins to the Golgi apparatus”.
